The values that follow come from patent publication US5308763A, “Method of making primary culture of olfactory neurons” (The Johns Hopkins University, priority 1992, dated 1994).

“Also recorded” adds a separate entry of the source. Read-outs that look alike come from different tables or passages of the source.

The test system of assay [1] is Primary olfactory neurons. Briefly: Effect of odorant on cyclic AMP levels in primary olfactory neuron cultures (RIA). Particulars: for activity at 10 µM: Rattus norvegicus, Neuron, 10 uM IBMP, ± SEM, read-out: cAMP. The format is cell-based, rat. Here is the method:
(§1) After 5-7 days in primary culture, olfactory neuronal cells were exposed to odorants and cyclic AMP levels assayed. To avoid transient changes in intracellular cyclic AMP levels caused by feeding, the medium was changed to 0.5 ml of MEM-AIR containing 0.1% (w/v) RIA-grade BSA 2-3 hr before use. At zero-time, cultures received an additional 0.5 ml of MEM-AIR with or without 10 uM 2-isobutyl-3-methoxypyrazine (IBMP). At various times thereafter the entire medium was aspirated and the reaction quenched by addition of 6% in cold TCA. Cellular extracts were processed and RIA for cyclic AMP was performed as described below.
(§2) Primary cultures of olfactory neurons were plated in laminin-treated 24-well cluster dishes at a density of 1×10^6 cells per cm^2. Cells were used between days 5-7 in culture. Thirty min before experimentation, monolayers were fed wtih MEM-AIR containing 0.1% (w/v) RIA grade BSA. Immediately prior to use, odorants were diluted from a 50 mM stock in absolute ethanol to 10 uM. At zero time, 0.5 ml of MEM-AIR containing 0.1% RIA grade BSA and odorant at twice the final concentration was added to wells.
(§3) The experiment was terminated by aspiration of culture medium and addition of 200 ul of 6% (w/v) trichloroacetic acid (TCA) at 0° C. Culture wells were heated to 56° C. in an oven for 1 hr, scraped, sonicated, chilled, and microfuged for 30 sec. The supernatants were extracted 4 times with 5 volumes of ether, and the ether-extracted water phase was lyophilized to dryness. Samples were resuspended in 200 ul of RIA-NEN buffer (NEN/DuPont, Boston, Mass.) and RIA assay was performed according to specifications of the cyclic AMP kit.

For another assay, the system named is NG-108 cells. Briefly: Effect of odorant on cyclic AMP levels in NG-108 cells (RIA). Particulars: for activity at 10 µM: 10 uM IBMP, ± SEM, read-out: cAMP. It counts as cell-based. As to the method: as §1, §2, §3
1 NG-108 cells (a generous gift from Dr. Karen Braas, University of Vermont, Burlington, Vt.) were grown and maintained as previously described (Braas, Childers and U'Prichard, 1983). For experimentation, cells were plated in 24-well clustered dishes and treated similarly to olfactory neurons. NG-108 cells are hybrid cells of a globlastoma and a non-olfactory neural-like cell. NG-108 is a continuous cell line.

Another assay relates to adenylyl cyclase. Description: Adenylyl cyclase augmentation in olfactory neuronal cultures by odorants. It counts as cell-based. The text has this:
The cells of the olfactory epithelium from which the neuronal cells have been purified are mainly the sustentacular cells and the basal cells. These cells can be distinguished on the basis of morphology, marker proteins, and lack of excitability.

Assay [2] relates to olfactory neurons. Description: Evaluation of substrate matrix substances for plating efficiency and morphology of olfactory neurons. The format is cell-based, rat. Particulars: for plating efficiency (in words) / process / neurite outgrowth (in words): culture surface coated with the substance. Here is the method:
Two chamber slides were pretreated in a number of ways, For laminin coating, 1 ml of MDV containing 25 ug/ml laminin was plated onto glass two-chamber slides overnight at 37° C.; before use, the slides were rinsed with MDV. For fibronectin, slides were treated with a solution containing 1 ml of MDV containing 20 ug/ml fibronectin (Collaborative Research), incubated overnight at 37° C. and rinsed with MDV prior to use. For polyornithine (PORN, Sigma Chemicals), a solution of a concentration of 1 mg/ml PORN in deionized distilled water was added to slides, incubated 1 hr at 37° C., rinsed twice with deionized distilled water, and rinsed once with MDV prior to use. When laminin was used on PORN-treated slides, slides were treated with PORN and then laminin in the usual manner. Coating of slides with poly-D-lysine was performed analogous to treatment with polyornithine. Heparan sulfate was diluted in MDV to a concentration of 10 ug/ml and 1 ml was placed on a slide, maintained overnight at 37° C., and rinsed with deionized distilled water prior to use. Collagen (Gibco) or collage IV (Collaborative Research) was prepared as a 50 ug/ml solution in deionized distilled water and 1 ml of this solution utilized per slide. In the case of collagen, the solution was allowed to air dry. Collage IV was maintained overnight at room temperature, aspirated, air dried and then rinsed twice with deionized distilled water prior to use. When laminin was used with collagen IV, collage IV was prepared as described, and laminin was subsequently added in the usual manner. Matrigel (Collaborative Research) was utilized according to manufacturer's instructions.
Primary cultures were prepared as described above and plated onto a number of different substrates and examined by phase contrast as well as immunofluorescence with antivimentin antisera (FIG. 6).
Matrigel was also examined as a substrate (FIG. 7).

The subject of assay [3] is olfactory neurons. Description: Effect of NGF on olfactory neuronal survival and neurite extension. It counts as cell-based, rat.
The mark [4] stands for this setting: read-out: concentration eliciting comparable levels of excitation (50% of maximal adenylyl cyclase augmentation).

As for `COc1nccnc1CC(C)C` [IBMP, 2-isobutyl-3-methoxypyrazine], the activity at 10 µM in assay [1] (0.5 min) came out at 350 ± 160%; in assay [1] (1 min) it was 250 ± 92%; in assay [1] (5 min) it was 270 ± 113%; in assay [1] (0.25 h, time 15 min) it was 175 ± 47%; in the assay on NG-108 cells (NG-108, 0.5 min, time 0.5 min), 103 ± 19%; with NG-108 cells (NG-108, 1 min, time 1.0 min), 94 ± 32%. Besides, the activity at 10 µM was found to be 99 ± 16% in the assay on NG-108 cells (NG-108, 5 min, time 5.0 min) and 70 ± 41% with NG-108 cells (NG-108, 0.25 h, time 15 min). Besides, in assay [1] (olfactory neurons), the “maximum increase in intracellular cyclic AMP over control levels” value is given as “approximately three”. Also, the “rise in intracellular cyclic AMP levels (in words)” value in assay [1] (olfactory neurons) is given as “rapid, transient rise in intracellular cyclic AMP levels”. Further, in the assay with NG-108 cells (NG-108 cells, similar treatment), the “change of cyclic AMP levels (in words)” value was “does not alter cyclic AMP levels”. Further, in the assay with adenylyl cyclase (read-out: concentration stimulating to 50% of maximal adenylyl cyclase augmentation), the EC50 was 0.001 µM.

Regarding laminin, in the assay with olfactory neurons [2], the “plating efficiency (in words)” value is listed as “optimal plating efficiency” and the “process / neurite outgrowth (in words)” value is recorded as “cells extend neurites in a random fashion”. For the same molecule, the “aggregation of cells (in words)” value in the assay on olfactory neurons [2] (duplicate suspensions, laminin vs matrigel, FIG. 7) was “no tendency to reaggregate”.

fibronectin: in the assay with olfactory neurons [2], the “process / neurite outgrowth (in words)” value is “processes are shorter”.

In the case of `CC(C)CC(=O)O` [isovaleric acid], the EC50 in the assay on adenylyl cyclase (setting [4]) lay in the range of 1 to 10 µM.

In the case of collagen, in the assay with olfactory neurons [2], the “plating efficiency (in words)” value was “somewhat better plating efficiency than poly-D-lysine, polyornithine or heparan-sulfate” and the “process / neurite outgrowth (in words)” value is “process outgrowth is still stunted”.

For the molecule `CC(C)=CCCC(C)=CC#N` [citralva], in the assay on adenylyl cyclase (setting [4]), the EC50 fell in the range of 1 to 10 µM.

B1: NGF: nerve growth factor (NGF, Collaborative Research) (protein, UniProt P01139 122-241, looked up)
Beta-nerve growth factor: SSTHPVFHMGEFSVCDSVSVWVGDKTTATDIKGKEVTVLAEVNINNSVFRQYFFETKCRASNPVESGCRGIDSKHWNSYCTTTHTFVKALTTDEKQAAWRFIRIDTACVCVLSRKATRRG
modifications: Beta-nerve growth factor
On to B1, for which, in the assay with olfactory neurons [3] (NGF 25 ng/ml), the “survival and neurite extension (in words)” value was “necessary for survival of olfactory neurons; also recorded: affects both olfactory neuronal survival and neurite extension in culture”. The “process extension without NGF (in words)” value with olfactory neurons [3] (by 3 days in culture, without NGF) is “lose process extension”. Moreover, the “decrease of cell viability without NGF” value in the assay with olfactory neurons [3] (by 3 days in culture, without vs with 25 ng/ml NGF) was “approximately 85%”.
